Assay: RP-TLC on cellulose layers, lipophilicity evaluation with water-organic modifier binary solvent systems
Type: physicochemical
Conditions: for hRF / - m (slope, specific hydrophobic surface area) / C0 (hydrophobicity parameter, C0 = - RM0/m) / RM0 (intercept, hydrophobicity parameter): cellulose; for - m (slope, specific hydrophobic surface area) / C0 (hydrophobicity parameter, C0 = - RM0/m) / RM0 (intercept, hydrophobicity parameter): organic modifier 10-30%; for relative lipophilicity among the investigated substances: RP-TLC on cellulose, all mobile phases
Experimental: The three, water-organic modifier, binary solvent systems were used with different volume fractions. All components of mobile phases were of analytical grade of purity.
The TLC experiments were performed on 10 cm × 10 cm cellulose (Art. 105552, Merck, Germany) layers.
After the development, the detection was performed by exposing the plates to iodine vapour. All investigations were performed at room temperature (22 ± 2 °C).
The RF -values were calculated according to the relationship:
RF = Distance of spot from origin / Distance of mobile phase front from origin
Here, RM-values were calculated for each solute in each mobile phase according to the Bate-Smith and Westall equation ([29]):
RM=log (1/RF-1) (Equation 1)
In an aim to establish the reversed-phase TLC on cellulose, the mobile phase had to be more polar than the cellulose.
The retention behavior of biological active substances investigated in RP-TLC can be presented as the relationship between the RM-values and the content of organic modifier in mobile phase through the linear Equation ([16]):
RM = R^0M + mC (Equation 2)
The value of the intercept, R^0M, represents the lipophilicity of the examined substance and the value of the slope, m, corresponds to the specific hydrophobic surface area of this substance, while C represents the volume fraction of the organic modifier in mobile phase.
By the analogy through the hydrophobicity parameter of φ0 ([6], [7]), previously defined for the HPLC method as the concentration of the organic modifier in the mobile phase for which the distribution of the analyzed substance between the mobile and stationary phase was equal (1:1) another hydrophobicity parameter, C0, can be calculated. The hydrophobicity parameter, C0, represents the volume fraction of the organic modifier in mobile phase where RM = 0 ([11]-[12]) and it can be calculated as C0 = - R^0M / m.

[1] = water-acetone, 10 vol% organic modifier
[2] = water-acetone, 15 vol% organic modifier
[3] = water-acetone, 20 vol% organic modifier
[4] = water-acetone, 25 vol% organic modifier
[5] = water-acetone, 30 vol% organic modifier
[6] = water-ethanol, 10 vol% organic modifier
[7] = water-ethanol, 15 vol% organic modifier
[8] = water-ethanol, 20 vol% organic modifier
[9] = water-ethanol, 25 vol% organic modifier
[10] = water-ethanol, 30 vol% organic modifier
[11] = water-methanol, 10 vol% organic modifier
[12] = water-methanol, 15 vol% organic modifier
[13] = water-methanol, 20 vol% organic modifier
[14] = water-methanol, 25 vol% organic modifier
[15] = water-methanol, 30 vol% organic modifier

| hRF [1] | hRF [2] | hRF [3] | hRF [4] | hRF [5] | - m (slope, specific hydrophobic surface area) (water-acetone) | hRF [6] | hRF [7] | hRF [8] | hRF [9] | hRF [10] | - m (slope, specific hydrophobic surface area) (water-ethanol) | hRF [11] | hRF [12] | hRF [13] | hRF [14] | hRF [15] | - m (slope, specific hydrophobic surface area) (water-methanol) | C0 (hydrophobicity parameter, C0 = - RM0/m) (water-methanol) | Compound | relative lipophilicity among the investigated substances | other results |
| --- | --- | --- | --- | --- | --- | --- | --- | --- | --- | --- | --- | --- | --- | --- | --- | --- | --- | --- | --- | --- | --- |
| 78 | 84 | 86 | 89 | 93 | 2.671 ± 0.002 | 81 | 85 | 90 | 92 | 93 | 2.589 ± 0.002 | 78 | 80 | 83 | 86 | 88 | 1.635 ± 0.001 |  | CCOC(=O)C(CCc1ccccc1)N[C@@H](C)C(=O)N1CCC[C@H]1C(=O)O (stereo partly drawn) [Substance 1, (S)-1-[N-[1-(ethoxycarbonyl)-3-phenylpropyl]-L-alanyl]-L-proline] |  |  |
| 55 | 60 | 66 | 70 | 73 | 1.763 ± 0.001 | 65 | 70 | 74 | 79 | 82 | 1.974 ± 0.001 | 53 | 58 | 65 | 68 | 71 | 1.721 ± 0.001 | 0.063 | CCOC(=O)[C@H](CCc1ccccc1)N[C@@H](C)C(=O)N1Cc2ccccc2C[C@H]1C(=O)O [Substance 2, [3S-[2[R* (R*)],3R*]]-2-[2-[[1-(ethoxycarbonyl)-3-phenylpropyl]amino]-1-oxopropyl]-1,2,3,4-tetrahydro-3-isoquinolinecarboxylic acid] | most lipophilic | C0 (hydrophobicity parameter, C0 = - RM0/m) (water-acetone): 0.047; RM0 (intercept, hydrophobicity parameter) (water-acetone): 0.082 ± 0.020; RM0 (intercept, hydrophobicity parameter) (water-methanol): 0.109 ± 0.032 |
| 66 | 70 | 73 | 77 | 80 | 1.569 ± 0.001 | 73 | 76 | 79 | 83 | 88 | 2.109 ± 0.002 | 60 | 68 | 75 | 80 | 85 | 2.858 ± 0.001 | 0.036 | CCOC(=O)[C@H](CCc1ccccc1)N[C@H]1CCCN2CCC[C@@H](C(=O)O)N2C1=O [Substance 4, [1S-[1α,9α (R*)]]-9-[[1-(ethoxycarbonyl)-3-phenylpropyl]amino] octahydro-10-oxo-6H-pyridazino [1,2-a] [1,2] diazepine-1-carboxylic acid monohydrate] |  | RM0 (intercept, hydrophobicity parameter) (water-methanol): 0.104 ± 0.010 |

Second part, the molecule before the results:

| Compound | hRF [1] | hRF [2] | hRF [3] | hRF [4] | hRF [5] | - m (slope, specific hydrophobic surface area) (water-acetone) | hRF [6] | hRF [7] | hRF [8] | hRF [9] | hRF [10] | - m (slope, specific hydrophobic surface area) (water-ethanol) | hRF [11] | hRF [12] | hRF [13] | hRF [14] | hRF [15] | - m (slope, specific hydrophobic surface area) (water-methanol) | C0 (hydrophobicity parameter, C0 = - RM0/m) (water-methanol) | relative lipophilicity among the investigated substances | other results |
| --- | --- | --- | --- | --- | --- | --- | --- | --- | --- | --- | --- | --- | --- | --- | --- | --- | --- | --- | --- | --- | --- |
| NS(=O)(=O)c1cc2c(cc1Cl)NCNS2(=O)=O [HCTZ, 6-chloro-3,4-dihydro-2H-1,2,4-benzothiadiazine-7-sulfonamide,1,1-dioxide] | 83 | 85 | 88 | 92 | 95 | 2.975 ± 0.004 | 85 | 87 | 90 | 93 | 95 | 2.697 ± 0.002 | 80 | 83 | 85 | 90 | 92 | 2.366 ± 0.023 |  |  |  |
| NCCCC[C@H](NC(CCc1ccccc1)C(=O)O)C(=O)N1CCC[C@H]1C(=O)O.O.O (stereo partly drawn) [Substance 3, (S)-1-[N^2-(1-carboxy-3-phenylpropyl)-L-lysyl]-L-proline dihydrate] | 86 | 90 | 92 | 94 | 96 | 2.849 ± 0.001 | 91 | 93 | 95 | 96 | 97 | 2.533 ± 0.001 | 85 | 88 | 91 | 92 | 93 | 1.871 ± 0.002 |  | most hydrophilic |  |
